Values of other authors in US20190381003A1, “PHARMACEUTICAL COMPOSITION FOR TREATMENT OF INFLAMMATORY EAR DISEASES, METHOD FOR PRODUCING SAME AND METHOD FOR TREATMENT USING SAME COMPOSITION” (LIMITED LIABILITY COMPANY "KONSORTSIUM-PIK", priority 2017, published 2019).

Legend:
[1] = following oral administration

time to maximal blood level [1] | Structure (SMILES) | persistence of anaesthesia (following drug administration) | analgesic effects, potency vs. lidocaine (vs. lidocaine) | analgesic effects, potency vs. procaine (vs. procaine)
≤ 30 min | Cc1c(C(C)C)c(=O)n(-c2ccccc2)n1C [Propyphenazone, 1,5-Dimethyl-2-phenyl-4-propan-2-yl-pyrazol-3-one] |  |  | 
 | CCCNC(C)C(=O)Nc1c(C)csc1C(=O)OC (racemic) [Articaine, (RS)-Methyl 4-methyl-3-(2-propylaminopropanoylamino)thiophene-2-carboxylate] | 1 to 5 h | 2 fold | 6 fold
